Patent US9920100B2, “Mimotopes of tropomyosin for use in immunotherapy for shellfish and/or arthropod allergy” (THE REGENTS OF THE UNIVERSITY OF CALIFORNIA, priority 2016, dated 2018)

System: Met e 1
Experiment: ELISA of Met e 1-specific IgG1 and IgG2a in serum of BALB/c mice immunized with mimotope-KLH conjugates
Format: in vivo, Metapenaeus ensis
Details: KLH conjugate in BALB/c mice; compared with the Met e 1 epitope (a.a. 251-270) positive control
Experimental: One mimotope peptide was chosen from each of clusters 1-6 (Table 3) and commercially synthesized (Genscript). The mimotopes were conjugated to keyhole limpet hemocyanin (KLH) using Imject EDC mcKLH Spin Kit (Thermo Scientific) according to manufacturer's instructions. Female BALB/c mice (n=4; 5-6 weeks) were immunized subcutaneously with a mimotope conjugate (50 μg in 200 μl PBS) emulsified in Complete Freund's adjuvant on day 0 and Incomplete Freund's adjuvant on days 14 and 21. Blood samples were collected on day 28 from tail vein of the mice. A Der p 1 mimotope (KGIPNTKAP) (Szalai et al., Mot Immunol, 2008; 45, 1308-1317) and an IgE epitope of Met e 1 ([…]; a.a. 251-270) were also included as negative and positive controls, respectively. All animal protocols were approved by the Animal Experimentation Ethics Committee, CUHK, in accordance with the Department of Health (Government of Hong Kong Special Administrative Region, HKSAR) guidelines in Care and Use of Animals. All experiments were performed under licenses granted from the HKSAR Government.
ELISA was performed as previously described (Wai et al., PLoS One, 2014; 9, e111649) to detect Met e 1-specific IgG antibodies. […] 100 μl of 0.1M sulfuric acid was added to each well to stop the reaction after 10 min of incubation and the optical density at 450 nm was determined using microplate reader (BioRad Model 680). […]

GTKLQHFRQ (Synthetic Cluster 4 mimotope) [Cluster 4 mimotope of Met e 1; selected for in vivo verification]
capacity to induce Met e 1-specific antibodies: lower capacity
